Source: ChEMBL document CHEMBL3822377, “Locking PDK1 in DFG-out conformation through 2-oxo-indole containing molecules: Another tools to fight glioblastoma” (Eur J Med Chem, 2016)

Assays:
[1] = biological target: 3-phosphoinositide-dependent protein kinase 1 (Homo sapiens, UniProt O15530); assay: Inhibition of PDK1 (unknown origin) using AKT(Thr-308)-tide substrate
[2] = biological target: T1, 3-phosphoinositide-dependent protein kinase 1 (Homo sapiens) (UniProt O15530); assay: Inhibition of PDK1 (unknown origin) at 10 uM by FRET-based Z-lyte assay
T1 sequence (whole entry): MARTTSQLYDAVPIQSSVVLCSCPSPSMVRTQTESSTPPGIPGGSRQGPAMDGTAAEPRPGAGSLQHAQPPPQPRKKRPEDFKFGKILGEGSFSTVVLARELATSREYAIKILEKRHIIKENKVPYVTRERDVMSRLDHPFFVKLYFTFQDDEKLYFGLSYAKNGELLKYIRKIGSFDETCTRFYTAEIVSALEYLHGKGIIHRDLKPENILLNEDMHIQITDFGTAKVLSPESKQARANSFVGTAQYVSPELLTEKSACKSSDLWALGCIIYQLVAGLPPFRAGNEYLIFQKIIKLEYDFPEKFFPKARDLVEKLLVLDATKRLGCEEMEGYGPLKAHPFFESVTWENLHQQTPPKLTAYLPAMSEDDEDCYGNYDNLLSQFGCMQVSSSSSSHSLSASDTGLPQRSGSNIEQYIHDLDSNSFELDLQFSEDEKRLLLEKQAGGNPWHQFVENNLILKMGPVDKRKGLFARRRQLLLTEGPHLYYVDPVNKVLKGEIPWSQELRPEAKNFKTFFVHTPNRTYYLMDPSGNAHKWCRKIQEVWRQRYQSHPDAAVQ

[3] = Antiproliferative activity against human U87MG cells after 72 hrs; assay type: functional, cell-based, U-87MG ATCC; conditions: U-87 MG

## O=C(CC(c1ccccc1)C(C(=O)O)C(=O)O)c1ccc(C(F)(F)F)cc1 (stereo not given)
[1]
  AC50: 2000 nM

## O=C1Cc2cc(NC(=O)c3cccn(Cc4ccc(F)c(F)c4)c3=O)ccc2N1
[2]
  inhibition: < 10%

## O=C1Nc2ccc(NC(=O)c3cccn(Cc4ccc(F)c(F)c4)c3=O)cc2/C1=C/c1cnc[nH]1
[2]
  inhibition: 64%

## O=C1Nc2ccc(NC(=O)[C@H](NC(=O)c3cccn(Cc4ccc(F)c(F)c4)c3=O)c3ccccc3)cc2/C1=C\c1ccc(F)cc1
[2]
  inhibition: < 10%

## O=C1Nc2ccc(NC(=O)c3cccn(Cc4ccc(F)c(F)c4)c3=O)cc2/C1=C\c1ccc(F)cc1
[2]
  inhibition: < 10%

## O=C1Nc2ccc(NC(=O)[C@H](NC(=O)c3cccn(Cc4ccc(F)c(F)c4)c3=O)c3ccccc3)cc2/C1=C/c1cnc[nH]1
[2]
  inhibition: 95%

## O=C(N[C@@H](COc1ccc2[nH]c(=O)[nH]c2c1)c1ccccc1)c1cccn(Cc2ccc(F)c(F)c2)c1=O
[3]
  IC50: > 30000 nM

## O=C(CNC(=O)c1cccn(Cc2ccc(F)c(F)c2)c1=O)Nc1ccc2c(c1)/C(=C\c1ccc(F)cc1)C(=O)N2
[2]
  inhibition: < 10%

## O=C1Nc2ccc(NC(=O)[C@H](NC(=O)c3cccn(Cc4ccc(F)c(F)c4)c3=O)c3ccccc3)cc2/C1=C/c1ncc[nH]1
[2]
  inhibition: 74%

## O=C(CNC(=O)c1cccn(Cc2ccc(F)c(F)c2)c1=O)Nc1ccc2c(c1)/C(=C/c1cccs1)C(=O)N2
[2]
  inhibition: 19%

## O=C(CNC(=O)c1cccn(Cc2ccc(F)c(F)c2)c1=O)Nc1ccc2c(c1)CC(=O)N2
[2]
  inhibition: 57%

## Cn1ccnc1/C=C1/C(=O)Nc2ccc(NC(=O)c3cccn(Cc4ccc(F)c(F)c4)c3=O)cc21
[2]
  inhibition: < 10%

## O=C1Cc2cc(NC(=O)[C@H](NC(=O)c3cccn(Cc4ccc(F)c(F)c4)c3=O)c3ccccc3)ccc2N1
[2]
  inhibition: < 10%

## O=C1Nc2ccc(NC(=O)c3cccn(Cc4ccc(F)c(F)c4)c3=O)cc2/C1=C/c1cccs1
[2]
  inhibition: < 10%

## O=C1Nc2ccc(NC(=O)[C@H](NC(=O)c3cccn(Cc4ccc(F)c(F)c4)c3=O)c3ccccc3)cc2/C1=C/c1cccs1
[2]
  inhibition: < 10%
